Assay results: EPA's ToxRefDB 2

Tests used:
[1] = test system: rat; conditions: Sub-acute repeat dose toxicity, sprague dawley, Oral, Gavage/Intubation, dose end: 12 day, group: systemic
[2] = test system: rabbit; conditions: Prenatal developmental toxicity study; new zealand white; Oral; Gavage/Intubation; dose end: 19 GD; group: maternal; systemic / in life observation / body weight / body weight gain + systemic / in life observation / clinical signs / reduced activity + …
[3] = test system: primate; conditions: Subchronic oral toxicity in nonrodent, Gavage/Intubation, dose end: 48 day, group: systemic
[4] = test system: rabbit; conditions: Sub-acute repeat dose toxicity, Oral, Gavage/Intubation, dose end: 5 day, group: systemic
[5] = test system: rabbit; conditions: Sub-acute repeat dose toxicity, new zealand white, Oral, Gavage/Intubation, dose end: 13 day
[6] = test system: primate; conditions: Sub-acute repeat dose toxicity, Oral, Gavage/Intubation, dose end: 9 day, group: systemic
[7] = test system: rat; conditions: Sub-acute repeat dose toxicity, sprague dawley, Oral, Gavage/Intubation, dose end: 14 day, group: systemic
[8] = test system: rat; conditions: Prenatal developmental toxicity study, sprague dawley, Oral, Gavage/Intubation, dose end: 18 GD
[9] = test system: primate; conditions: Subchronic oral toxicity in nonrodent, Gavage/Intubation, dose end: 42 day, group: systemic, systemic / in life observation / body weight / body weight + systemic / in life observation / clinical signs / emesis + systemic / in life …
[10] = test system: rat; conditions: Subchronic oral toxicity in rodents, sprague dawley, Gavage/Intubation, dose end: 42 day, group: systemic
[11] = test system: rat; conditions: Fertility (Segment I), sprague dawley, Oral, Gavage/Intubation, dose end: 1 generation, group: parental
[12] = test system: primate; conditions: Sub-acute repeat dose toxicity; Oral; Gavage/Intubation; dose end: 5 day; group: systemic; systemic / in life observation / clinical signs / emesis + systemic / in life observation / food consumption / food consumption
[13] = test system: rat; conditions: Fertility (Segment I), sprague dawley, Oral, Gavage/Intubation, dose end: 1 generation, group: parental; remark: listed apart in the source
[14] = test system: rat; conditions: Sub-acute repeat dose toxicity; Inhalation; Whole-Body; dose end: 14 day; group: systemic; systemic / hematology / blood clotting / blood clotting - activated partial thromboplastin time + systemic / in life observation / body …
[15] = test system: dog; conditions: Sub-acute repeat dose toxicity; beagle; Inhalation; Whole-Body; dose end: 14 day; group: systemic; systemic / in life observation / food consumption / food consumption + systemic / pathology microscopic / nose / [other] + systemic / …
[16] = test system: rat; conditions: Subchronic oral toxicity in rodents, sprague dawley, Feed, dose end: 90 day, group: systemic, systemic / pathology gross / sperm measure / sperm count + systemic / pathology gross / sperm measure / sperm motility
[17] = systemic / in life observation / body weight / body weight gain + systemic / in life observation / clinical signs / respiration (rales) + …
[18] = systemic / in life observation / body weight / body weight gain + systemic / in life observation / clinical signs / salivation + systemic / …
[19] = systemic / in life observation / clinical signs / emesis + systemic / pathology microscopic / peritoneum / atrophy
[20] = systemic / in life observation / clinical signs / emesis + systemic / pathology microscopic / peritoneum / atrophy + systemic / in life …
[21] = systemic / in life observation / body weight / body weight + systemic / in life observation / body weight / body weight gain + systemic / in…
[22] = systemic / in life observation / clinical signs / abnormal feces
[23] = group: maternal, reproductive / offspring survival early / litter viability other / litter viability
[24] = group: systemic, systemic / in life observation / body weight / body weight + systemic / in life observation / clinical signs / inappetence
[25] = group: systemic, systemic / in life observation / body weight / body weight + systemic / in life observation / clinical signs / inappetence + systemic / in …
[26] = systemic / hematology / lymphocyte / lymphocyte
[27] = systemic / in life observation / clinical signs / emesis + systemic / in life observation / clinical signs / salivation + systemic / …
[28] = systemic / in life observation / food consumption / food consumption + systemic / pathology gross / intestine large / dilatation + systemic…
[29] = group: developmental, developmental / developmental malformation / eye / anophthalmia + developmental / developmental malformation / eye / microphthalmia + …
[30] = group: maternal, systemic / in life observation / body weight / body weight + systemic / in life observation / body weight / body weight gain + systemic / in…
[31] = systemic / hematology / erythrocyte (rbc) count differential / erythrocyte (rbc) + systemic / hematology / hemoglobin (hgb) / hemoglobin (…
[32] = systemic / in life observation / clinical signs / abnormal respiratory sounds + systemic / in life observation / clinical signs / drooping …
[33] = systemic / in life observation / body weight / body weight + systemic / in life observation / clinical signs / altered breathing rate + …

C[C@@H](Oc1ccc(CNC(=O)c2cccnc2Oc2ccc3c(c2)OCO3)c(F)c1)C(=O)O gave an LOAEL [1, 17] greater than 1000 mg/kg/day, an NOAEL [1, 17] of no less than 1000 mg/kg/day and an LEL [1, 18] of 400 mg/kg/day. For the same compound, the NEL [1, 18] was less than 400 mg/kg/day, the LEL [2] was 200 mg/kg/day and the LOAEL [2] was greater than 200 mg/kg/day. For the same compound, the NEL [2] was 60 mg/kg/day, the NOAEL [2] was no less than 200 mg/kg/day and the LEL [3, 19] was 5 mg/kg/day. It also gave an NEL [3, 19] of less than 5 mg/kg/day, an LOAEL [3, 20] greater than 30 mg/kg/day and an NOAEL [3, 20] of no less than 30 mg/kg/day. The LOAEL [4, 21] was greater than 750 mg/kg/day, the NOAEL [4, 21] was no less than 750 mg/kg/day and the LEL [4, 22] was 120 mg/kg/day. It also gave an NEL [4, 22] of less than 120 mg/kg/day, an LEL [5, 23] of 600 mg/kg/day and an LOAEL [5, 23] greater than 600 mg/kg/day. The NEL [5, 23] was 400 mg/kg/day, the NOAEL [5, 23] was no less than 600 mg/kg/day and the LEL [5, 24] was 120 mg/kg/day. For the same compound, the NEL [5, 24] was less than 120 mg/kg/day, the LOAEL [5, 25] was greater than 600 mg/kg/day and the NOAEL [5, 25] was no less than 600 mg/kg/day. For the same compound, the LEL [6, 26] was 100 mg/kg/day, the NEL [6, 26] was less than 100 mg/kg/day and the LOAEL [6, 27] was greater than 1000 mg/kg/day. The NOAEL [6, 27] was no less than 1000 mg/kg/day, the LEL ([7]; systemic / in life observation / food consumption / food consumption) was 120 mg/kg/day and the NEL ([7]; systemic / in life observation / food consumption / food consumption + systemic / pathology gross / intestine large / dilatation) was 30 mg/kg/day. It also gave an LOAEL [7, 28] greater than 750 mg/kg/day, an NOAEL [7, 28] of no less than 750 mg/kg/day and an LEL [8, 29] of 400 mg/kg/day. The LOAEL [8, 29] was greater than 1000 mg/kg/day, the NOAEL [8, 29] was no less than 1000 mg/kg/day and the LOAEL [8, 30] was greater than 1000 mg/kg/day. The NEL [8, 30] was 120 mg/kg/day, the NOAEL [8, 30] was no less than 1000 mg/kg/day and the LEL ([8]; group: maternal, systemic / in life observation / clinical signs / salivation + systemic / in life observation / food consumption / food consumption + …) was 400 mg/kg/day. The LEL [9] was 200 mg/kg/day, the LOAEL [9] was greater than 1000 mg/kg/day and the NEL [9] was 30 mg/kg/day. The NOAEL [9] was no less than 1000 mg/kg/day, the LOAEL [10, 31] was greater than 2000 mg/kg/day and the NOAEL [10, 31] was no less than 2000 mg/kg/day. For the same compound, the NEL ([10]; systemic / hematology / neutrophils / neutrophils + systemic / in life observation / body weight / body weight + systemic / in life …) was 10 mg/kg/day, the LEL ([10]; systemic / pathology microscopic / mesentery / infiltration cellular) was 50 mg/kg/day and the LOAEL [11, 32] was greater than 1000 mg/kg/day. For the same compound, the NEL [11, 32] was 50 mg/kg/day, the NOAEL [11, 32] was no less than 1000 mg/kg/day and the LEL ([11]; systemic / in life observation / clinical signs / reduced activity + systemic / in life observation / clinical signs / salivation) was 400 mg/kg/day. It also gave an LEL [12] of 30 mg/kg/day, an LOAEL [12] greater than 30 mg/kg/day and an NEL [12] of less than 30 mg/kg/day. For the same compound, the NOAEL [12] was no less than 30 mg/kg/day, the LOAEL [13, 33] was greater than 1000 mg/kg/day and the NEL [13, 33] was 50 mg/kg/day. The NOAEL [13, 33] was no less than 1000 mg/kg/day and the LEL ([13]; systemic / in life observation / body weight / body weight + systemic / in life observation / clinical signs / drooping eyelids (ptosis) + …) was 400 mg/kg/day.
CN(C[C@@H](CC[N+]12CCC(C3CCCCC3)(CC1)CC2)c1ccc(Cl)c(Cl)c1)C(=O)c1cc(C(F)(F)F)cc(C(F)(F)F)c1.CS(=O)(=O)[O-] was tested, and the LEL [14] was 2 mg/kg/day, the LOAEL [14] was greater than 2 mg/kg/day and the NEL [14] was less than 2 mg/kg/day. It also gave an NOAEL [14] of no less than 2 mg/kg/day, an LEL [15] of 2 mg/kg/day and an LOAEL [15] greater than 2 mg/kg/day. For the same compound, the NEL [15] was less than 2 mg/kg/day and the NOAEL [15] was no less than 2 mg/kg/day.
Work on O=C(O)c1ccc(C(=O)O)cc1 [Terephthalic acid] yielded an LEL [16] of 5820 mg/kg/day, an LOAEL [16] greater than 5820 mg/kg/day and an NEL [16] of 1180 mg/kg/day. The NOAEL [16] was no less than 5820 mg/kg/day.
